The source of these data is ChEMBL document CHEMBL4138267, “Synthesis and SAR of 1,2,3,4-Tetrahydroisoquinoline-Based CXCR4 Antagonists” (ACS Med Chem Lett, 2018).

A short description of data set [1]: Permeability of the compound at pH 5.5 by PAMPA. The format is ADME.
Data set [2] is described as follows: Permeability of the compound at pH 7.4 by PAMPA. It is filed as ADME. A general note: PAMPA measures passive passage across an artificial lipid membrane.

Regarding `NCCCCN(C[C@H]1Cc2ccccc2CN1)[C@H]1CCCc2cccnc21`, the permeability result in data set [1] and in data set [2] was “Impermeable” each time.

Turning to `Cc1ccc([C@H](C)N(CCCCN)C[C@H]2Cc3ccccc3CN2)nc1`, the permeability entry in data set [1] and in data set [2] was “Impermeable” in each case.

As for `COc1cccnc1CN(CCCCN)C[C@H]1Cc2ccccc2CN1`, the permeability entry in data set [1] and in data set [2] was “Impermeable” each time.

For the compound `NCCCCN(Cc1ccc(F)cn1)C[C@H]1Cc2ccccc2CN1`, the permeability result in data set [1] and in data set [2] was “Impermeable” each time.

`NCCCCN(Cc1ccc2ccccc2n1)C[C@H]1Cc2ccccc2CN1`: the permeability result in data set [1] and in data set [2] was “Impermeable” throughout.

In the case of `Cc1cc(F)cnc1CN(CCCCN)C[C@H]1Cc2ccccc2CN1`, the permeability entry in data set [1] and in data set [2] was “Impermeable” each time.

On to `NCCCCN(Cc1ccc(Cl)cn1)C[C@H]1Cc2ccccc2CN1`, for which the permeability entry in data set [1] and in data set [2] was “Impermeable” throughout.

For `NCCCCN(Cc1ccc(C(F)(F)F)cn1)C[C@H]1Cc2ccccc2CN1`, the permeability result in data set [1] and in data set [2] was “Impermeable” each time.

With `Cc1cnc2c(c1)CCC[C@@H]2N(CCCCN)C[C@H]1Cc2ccccc2CN1`, the permeability result in data set [1] and in data set [2] was “Impermeable” each time.

Turning to `NCCCCN(Cc1cc(Cl)ccn1)C[C@H]1Cc2ccccc2CN1`, the permeability entry in data set [1] and in data set [2] was “Impermeable” throughout.

As to `Cc1cccnc1[C@H](C)N(CCCCN)C[C@H]1Cc2ccccc2CN1`, the permeability entry in data set [1] and in data set [2] was “Impermeable” throughout.

As to `Cc1ccnc(CN(CCCCN)C[C@H]2Cc3ccccc3CN2)c1`, the permeability entry in data set [1] and in data set [2] was “Impermeable” throughout.

Regarding `NCCCCN(Cc1cscn1)C[C@H]1Cc2ccccc2CN1`, the permeability result in data set [1] and in data set [2] was “Impermeable” each time.

Take `NCCCCN(Cc1ncccc1C1CC1)C[C@H]1Cc2ccccc2CN1`: the permeability result in data set [1] and in data set [2] was “Impermeable” throughout.

`C[C@@H](c1ccccn1)N(CCCCN)C[C@H]1Cc2ccccc2CN1`: the permeability result in data set [1] and in data set [2] was “Impermeable” throughout.

For `Cc1cccc(CN(CCCCN)C[C@H]2Cc3ccccc3CN2)n1`, the permeability result in data set [1] and in data set [2] was “Impermeable” each time.

Consider `NCCCCN(Cc1ncccc1F)C[C@H]1Cc2ccccc2CN1`, for which the permeability result in data set [1] and in data set [2] was “Impermeable” each time.

Take `Cc1nc(CN(CCCCN)C[C@H]2Cc3ccccc3CN2)cs1`: the permeability entry in data set [1] and in data set [2] was “Impermeable” each time.

As for `Cc1cnc(CN(CCCCN)C[C@H]2Cc3ccccc3CN2)c(C)c1`, the permeability entry in data set [1] and in data set [2] was “Impermeable” in each case.

In the case of `COc1ccc(CN(CCCCN)C[C@H]2Cc3ccccc3CN2)nc1`, the permeability entry in data set [1] and in data set [2] was “Impermeable” throughout.

Take `NCCCCN(C[C@H]1Cc2ccccc2CN1)[C@H]1CCOc2cccnc21`: the permeability entry in data set [1] and in data set [2] was “Impermeable” in each case.

For `NCCCCN(Cc1nccc2ccccc12)C[C@H]1Cc2ccccc2CN1`, the permeability entry in data set [1] and in data set [2] was “Impermeable” throughout.

Turning to `NCCCCN(Cc1ncccc1Cl)C[C@H]1Cc2ccccc2CN1`, the permeability result in data set [1] and in data set [2] was “Impermeable” each time.

Regarding `Cc1cnc(CN(CCCCN)C[C@H]2Cc3ccccc3CN2)c(F)c1`, the permeability result in data set [1] and in data set [2] was “Impermeable” throughout.

`Cc1cccnc1CN(CCCCN)C[C@H]1Cc2ccccc2CN1`: the permeability result in data set [1] and in data set [2] was “Impermeable” each time.

`NCCCCN(Cc1ncccc1C(F)(F)F)C[C@H]1Cc2ccccc2CN1`: the permeability entry in data set [1] and in data set [2] was “Impermeable” each time.

Turning to `NCCCCN(Cc1ccccn1)C[C@H]1Cc2ccccc2CN1`, the permeability result in data set [1] and in data set [2] was “Impermeable” throughout.

In the case of `Cc1ccc(CN(CCCCN)C[C@H]2Cc3ccccc3CN2)nc1`, the permeability entry in data set [1] and in data set [2] was “Impermeable” each time.

`NCCCCN(Cc1cc2ccccc2cn1)C[C@H]1Cc2ccccc2CN1`: the permeability result in data set [1] and in data set [2] was “Impermeable” throughout.

Regarding `C=Cc1cccnc1CN(CCCCN)C[C@H]1Cc2ccccc2CN1`, the permeability result in data set [1] and in data set [2] was “Impermeable” in each case.

As for `NCCCCN(Cc1nccs1)C[C@H]1Cc2ccccc2CN1`, the permeability entry in data set [1] and in data set [2] was “Impermeable” each time.
